Assay results taken from the OPERA property sets (Mansouri et al. 2018).

Row | SMILES | logP
1 | CNC(=O)N1C(=O)CN=C(c2ccccc2)c2cc([N+](=O)[O-])ccc21 | 1.76
2 | CNC12CCCCC1CC(O)c1ccccc12 (centres undefined) | 1.84
3 | O=c1[nH]c(=O)n(Cc2ccc(Cl)cc2)cc1F | 1.64
4 | CCCc1c2oc(C(=O)O)cc(=O)c2cc2c(=O)cc(C(=O)O)n(CC)c12 | 2.22
5 | O=c1c2c(nc3ccccn13)CCC2 | 1.19
6 | Cc1cc2c(cc1S(N)(=O)=O)S(=O)(=O)NC=N2 | -0.32
7 | CC(C)(C)c1ccc(OCC(OC(=O)n2ccnc2)C(C)(C)C)cc1 (centres undefined) | 4.82
8 | CCC(CC)(C(=O)NC(N)=S)C(=O)OC | 1.82
9 | CN(C)CC/C=C1\c2ccccc2COc2ccccc21 | 4.29
10 | CC(=O)O.CCCCCCCCCCCCNC(=N)N | 1.15
11 | COc1cccc(C(=O)NC2CCN(Cc3ccc(F)cc3)CC2)c1OC | 2.87
12 | CN(C)CCN(Cc1cccs1)c1ccccn1 | 2.87
13 | COc1cccc2c1C(=O)c1c(O)c3c(c(O)c1C2=O)CC(O)(C(C)=O)CC3OC1CC(NC(=O)CN(C)C)C(O)C(C)O1 (centres undefined) | 1.26
14 | Nc1nc(=O)c2[nH]c(N)c(Cc3ccsc3)c2[nH]1 | 1.08
15 | Cc1onc(-c2ccccc2Cl)c1C(=O)NC1C(=O)N2C1SC(C)(C)C2C(=O)O (centres undefined) | 2.48
16 | O=C1CC2(CCCC2)C(=O)N1Oc1ccccc1 | 1.77
17 | O=C(O)CCCOc1cccc2ccccc12 | 3.5
18 | Cc1ccc(C=O)o1 | 0.67
19 | NC1C2CCC1c1cc(C(F)(F)F)ccc1C2 (centres undefined) | 3.59
20 | NS(=O)(=O)c1ccc(S(=O)(=O)CCCO)c([N+](=O)[O-])c1 | -0.05
21 | CNc1nc(C)c(C(=O)CCN2CCCC2)s1 | 1.86
22 | CN(C)C(=O)NCCCn1nc(-c2ccccc2)ccc1=O | 1.61
23 | COP(=S)(OC)Oc1cc(Cl)c(Cl)cc1Cl | 4.88
24 | CC(=O)n1c(=O)[nH]cc(F)c1=O | -0.34
25 | N#CCCO | -0.94

Row | SMILES | logP
26 | CCOP(=O)(OCC)SCS(=O)(=O)C(C)(C)C | 2.76
27 | ClC(Cl)Br | 2
28 | CC(C(O)c1ccccc1)N(C)C (centres undefined) | 1.7
29 | CCNC(=O)[C@@H](NC(=O)CNC(=O)c1ccccc1)C(C)C | 1.05
30 | CCCOc1ccc(OCC(OC(=O)n2ccnc2)C(C)(C)C)cc1 (centres undefined) | 4.1
31 | CC(C)(C)c1ccc(C2CCCC(O)C2)c(O)c1 (centres undefined) | 4.05
32 | O=C1C[N+]([O-])=C(c2ccccc2)c2cc(Cl)ccc2N1CCO | 0.82
33 | Cc1ccc(C(=O)C(C)CN2CCCCC2)cc1 (centres undefined) | 3.65
34 | COc1cc(C(N)=O)ccc1-c1cn2cccnc2n1 | 0.7
35 | CC(=O)NC(CO)C(N)=O (centres undefined) | -1.87
36 | CCCCC(NC(Cc1ccccc1)C(=O)N1CCC(OCOC)CC1)C(=O)NC(CC1CCCCC1)C(O)CC(C(=O)NCCCN1CCOCC1)C(C)C (centres undefined) | 4.5
37 | CCOC(=O)Nc1ccc2c(c1)N(C(=O)CCN1CCOCC1)c1ccccc1S2 | 2.98
38 | O=P(OCC(Br)CBr)(OCC(Br)CBr)OCC(Br)CBr (centres undefined) | 4.29
39 | CCN(CC)CCCN1c2ccccc2Sc2ccc(Cl)cc21 | 6.46
40 | NC(=O)c1cc2ccccc2[nH]1 | 1.61
41 | Oc1ccc(C(O)(Cn2ccnc2)c2ccc(-c3ccncc3)cc2)cc1 (centres undefined) | 2.49
42 | COc1cccc2c1C(=O)c1c(O)c3c(c(O)c1C2=O)CC(O)(C(C)=O)CC3OC1CC(N(CC#N)CC(=O)O)C(O)C(C)O1 (centres undefined) | 0.03
43 | CCN(CC)C(=O)Nc1ccc(OCC(O)CNC(C)(C)C)c(C(C)=O)c1 (centres undefined) | 1.92
44 | Nc1ccc(C(=O)O)c(N)c1 | -0.31
45 | O=[N+]([O-])c1ccccc1O[C@@H]1O[C@H](CO)[C@@H](O)[C@H](O)[C@H]1O | -0.78
46 | CC(=O)NN1CC=CCC1 | 0.52
47 | COC(=O)c1c(C)[nH]c(-c2ccc(Cl)cn2)c1C(=O)OC | 2.7
48 | CCCCCCCCOc1ccc(NC(=O)OCCN2CCOCC2)cc1 | 4.8
49 | O=C1c2ccccc2C(=O)C1c1ccc(C(F)(F)F)cc1 | 3.78
